Calls of active or inactive are those of the source.
Key:
[1] = biological target: T1, Calpain-2 catalytic subunit (Sus scrofa, UniProt P43367); test: pig calpain II inhibitor potency, dose response, biochemical, fluorogenic peptide substrate (AID 1420); type: functional
T1 sequence (P43367 whole entry): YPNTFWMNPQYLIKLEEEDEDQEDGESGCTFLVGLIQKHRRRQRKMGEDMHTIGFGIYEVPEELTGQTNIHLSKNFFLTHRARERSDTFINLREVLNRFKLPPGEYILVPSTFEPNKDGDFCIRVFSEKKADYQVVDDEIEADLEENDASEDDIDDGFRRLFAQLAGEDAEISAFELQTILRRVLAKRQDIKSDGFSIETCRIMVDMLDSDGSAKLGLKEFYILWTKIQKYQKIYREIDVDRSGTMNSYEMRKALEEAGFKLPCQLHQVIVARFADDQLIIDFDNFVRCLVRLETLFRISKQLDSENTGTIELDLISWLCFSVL

[2] = P. falciparum late gametocyte killing, dose response, luminescence (AID 1117278); type: functional, cell-based;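 further: gametocytes exposed to compound for 24 hours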
[3] = Jurkat T cell cytotoxicity, dose response, cytotoxicity control for P. falciparum gametocyte viability project, luminescence (AID 1117277); type: functional, cell-based;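 further: potency reflects loss of cellular ATP meaning fewer viable cells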
[4] = inhibitors of Vif binding to APOBEC3G peptide, primary screen, biochemical, TR-FRET, GST-Vif 1-94, biotin-A3G peptide, dose response retest (AID 1117319); type: functional;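 further: TR-FRET signal of purified GST-Vif binding a biotinylated A3G peptide; inhibitors lower the FRET signal by blocking Vif and A3G binding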
[5] = HEp-2 cell cytotoxicity, dose response, cytotoxicity control for RSV inhibitor project, HTS (AID 2410); type: functional; conditions: human respiratory syncytial virus
[6] = SNU-C1 cell viability reduction, dose response, CellTiter-Glo luminescence (AID 1117323); type: functional, cell-based
[7] = RKO cell viability reduction, dose response, CellTiter-Glo luminescence (AID 1117322); type: functional
[8] = cytotoxicity toward HCT116 cells – cell-based, CellTiter-Glo luminescence, IC50, dose response (AID 1117332); type: functional; conditions: HCT-116
[9] = cytotoxicity toward HT-29 cells – cell-based, CellTiter-Glo luminescence, IC50, dose response (AID 1117330); type: functional
[10] = Concentration-dependent survival of SW480 colon cancer line, luminescence detection with CellTiter-Glo, half-maximal inhibitory concentration (AID 1117338); type: functional
[11] = CellTiter-Glo luminescent dose response of DLD-1 viability loss (AID 1117352); type: functional
[12] = cytotoxicity toward Colo320 cells – cell-based, CellTiter-Glo luminescence, IC50, dose response (AID 1117334); type: functional; conditions: COLO 320
Cytochrome P450 3A4 = Cytochrome P450 3A4 (Homo sapiens, UniProt P08684);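 further: CYP3A4 tested as one member of a cytochrome P450 panel screen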
Chain of Cytochrome P450 3A4 (P08684 whole entry): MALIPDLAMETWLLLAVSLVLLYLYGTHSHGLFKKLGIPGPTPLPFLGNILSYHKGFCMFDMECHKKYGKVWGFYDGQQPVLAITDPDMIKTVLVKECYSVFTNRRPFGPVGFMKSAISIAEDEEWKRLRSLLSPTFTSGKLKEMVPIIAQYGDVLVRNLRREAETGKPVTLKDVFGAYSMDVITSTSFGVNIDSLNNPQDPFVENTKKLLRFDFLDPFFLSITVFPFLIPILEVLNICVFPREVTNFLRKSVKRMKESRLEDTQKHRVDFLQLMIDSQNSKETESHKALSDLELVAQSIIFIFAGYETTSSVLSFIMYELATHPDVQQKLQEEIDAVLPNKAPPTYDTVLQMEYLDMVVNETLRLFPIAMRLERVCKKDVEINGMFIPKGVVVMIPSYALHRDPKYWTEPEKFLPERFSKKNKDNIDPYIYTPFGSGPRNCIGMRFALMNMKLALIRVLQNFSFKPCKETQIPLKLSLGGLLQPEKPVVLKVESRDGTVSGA

With CC(C(=O)Nc1ccccc1Oc1ccccc1)c1ccccc1 (centres undefined) the IC50 [1] was 19.8 µM (not active), the IC50 [2] was > 109 µM (inactive) and the IC50 [3] was > 83.2 µM (inactive).
For O=C(Nc1ccc2c(c1)oc1ccccc12)c1cccnc1, the IC50 [4] was > 100 µM (active) and the CC50 [5] was 46.2 µM (active).
With O=C(CNC(=O)c1cccs1)OCC(=O)c1ccc2ccccc2c1 the IC50 [4] was > 100 µM (active).
In the case of Cc1ccc(Cl)c(Nc2ccccc2C(=O)[O-])c1Cl.O.[Na+] [MECLOFENAMATE SODIUM], the IC50 [6] is reported as > 20 µM (inactive), the IC50 [7] is reported as > 20 µM (inactive) and the IC50 [8] is reported as > 20 µM (inactive). For the same compound, the IC50 [9] was > 20 µM (inactive), the IC50 [10] was > 20 µM (inactive) and the IC50 [11] was 15.1 µM (inactive). For the same compound, the IC50 [12] was > 20 µM (inactive) and the AC50 (Cytochrome P450 3A4) was “inconclusive”.

— ChEMBL document CHEMBL1201862, “PubChem BioAssay data set” (2004)
